Reference: patent US20230257383A1, “COMPOUND SERVING AS BTK INHIBITOR, PREPARATION METHOD THEREFOR, AND USE THEREOF” (CHENGDU HYPERWAY PHARMACEUTICALS CO., LTD., priority 2020, published 2023)
Where two headings read alike, the source gives them in different places.

Tests used:
BT474 cell proliferation = experiment: In vitro cell proliferation inhibitory activity test (CTG), BT474; type: cell-based; settings: Homo sapiens, BT-474, BT474 cell proliferation
Procedure: Test Example 4: In Vitro Cell Proliferation Inhibitory Activity Test
Cells were cultured in 1640 medium, added with 10% inactivated FBS and 1% double antibiotics, and cultured at 37° C. and 5% CO2.
(1) Cells were routinely cultured until the cell density was 80%-90%, and the cells were harvested when their number reached the requirement.
(2) Cells were resuspended with corresponding culture medium, counted, and prepared into cell suspension at appropriate density.
(3) The cell suspension was added to a 96-well plate, 100 μL per well.
(4) Cells were cultured overnight in a 37° C., 5% CO2 incubator.
(1) The compounds to be tested were diluted with DMSO to make a stock solution with a final concentration of 20 mM for later use.
(2) The stock solution was diluted 10 times from 20 mM to 2 mM with DMSO, and then diluted 3 times from 2 mM to 9 concentrations.
(3) The blank control wells were cells plus 0.5% DMSO, as high-reading control wells.
(4) Wells with no cells and only medium were used as low-reading control wells.
4: Cell treatment with compound
(1) 24 h after the cells were plated, the compounds acted alone, and 99 μL of growth medium was added to each well, followed by 1 μL of the compound prepared in step 3. The plate was shaken gently to mix uniformly, and then placed in a 37° C., 5% CO2 incubator.
(2) The cell plate was placed in an incubator for 72 h.
5: Detection by CTG method
(1) The cell plate to be tested was placed at room temperature for 30 min, and 100 μL of medium was discarded from each well.
(2) 100 μL of CTG reagent (CelltiterGlo kit) was added to each well, placed on a fast shaker for 2 min, and stood at room temperature in the dark for 30 min.
(3) The chemiluminescent signal value was read with the Envision instrument.
IC50 was calculated by using GraphPad Prism 8 software. The IC50 (half inhibitory concentration) of the compound was derived using the following nonlinear fitting formula, and the results are shown in the following table:
Y=Bottom+(Top−Bottom)/(1+10^((Log IC50−X)×HillSlope))
X: log value of compound concentration, Y: inhibition rate (% inhibition)
Inhibition rate (% inhibition)=(reading of high-reading control well-reading of compound well)/(reading of high-reading control well-reading of low-reading control well)×100

[1] = Blood-brain barrier permeability test, oral, SD rats; type: in vivo; settings: rat, oral 10 mg/kg single dose; for concentration at 1 h / Kp at 1 h: time point 1 h; for concentration at 2 h / Kp at 2 h: time point 2 h; for concentration at 4 h / Kp at 4 h: time point 4 h
Procedure: Test Example 6: Blood-Brain Barrier Permeability Test
Each test compound was administered orally at a single dose of 10 mg/kg to SD rats for pharmacokinetic study. Each group included 9 rats. The test compound was dissolved in 5% DMSO+10% solutol+85% saline, vortexed for 1-2 min, and ultrasonicated for 5-10 min to prepare into a colorless, transparent and clear administration solution. Animals were fasted overnight before administration. 1 h, 2 h, and 4 h after administration, three SD rats were selected from each group to take about 0.2-0.3 mL of blood through their orbit. The blood sample was placed on ice once collected, and centrifuged to separate the plasma within 15 min (centrifugation conditions: 8000 rpm, 1 min, room temperature). The collected plasma was stored at −20° C. before analysis. Immediately after blood collection, the cerebrospinal fluid and brain tissue were collected. The cerebrospinal fluid was draw out by dural puncture with a micro-sampler syringe under direct vision. Namely, about 100 μl of cerebrospinal fluid was collected with a 100 μl micro sample syringe from the rat that was anesthetized by chloral hydrate, with the head-fixed, the back hair-cut off, a transverse incision (2 cm) made at the line connecting the roots of the two ears, and the muscle layer of the neck and skull base bluntly scraped to expose the foramen magnum. The cerebrospinal fluid was stored at −20° C. before analysis. The rat then was sacrificed immediately, with its head cut off. The dissected brain tissue, with the surface capillaries peeled off, was weighed, added with 3 times the amount of cold saline, homogenized by a homogenizer for 1 min, and stored at −20° C. before analysis. 20 μL of plasma sample and brain homogenate sample was respectively added into 200 μL of working internal standard solution (the same volume of vehicle was added to the blank instead of internal standard), vortexed for 1 min, and centrifuged at 13500 rpm for 10 min. 100 μL of the supernatant was taken and analyzed by LC-MS/MS. 20 μL of the cerebrospinal fluid was added into 60 μL of working internal standard solution (the same volume of vehicle, instead of internal standard, was added to the blank), vortexed for 1 min, and centrifuged at 13500 rpm for 10 min. 50 μL of the supernatant was taken and analyzed by LC-MS/MS.

[2] = Liver microsome metabolic stability test (rat); type: in vitro ADME; settings: for microsomal CLint: read-out: CLint (μL/min/mg) Rat
Procedure: 1: To the sample wells of T0, T5, T10, T20, T30, T60 and NCF60, 10 μL of the test or reference working solution and 80 μL of microsome working solution (hepatic microsome with a protein concentration of 0.5 mg/mL) were added, and to Blank60 well, only the microsome working solution was added. Then samples of the Blank60, T5, T10, T20, T30 and T60 other than TO and NCF60 were placed in a 37° C. water bath and pre-incubated for about 10 min.
2: To the TO sample well, 300 μL of stop solution (containing 200 ng/mL tolbutamide and 200 ng/mL labetalol in acetonitrile solution) was added first, followed by 10 μL of NADPH regeneration system working solution.
3: After the pre-incubation of Blank60, T5, T10, T20, T30 and T60 incubation plates, 10 μL of NADPH regeneration system working solution was added to each sample well to start the reaction, and 10 μL of 100 mM potassium phosphate buffer was added to the NCF60 sample well.
4: After incubation for an appropriate time (such as 5, 10, 20, 30 and 60 min), to each test sample well and control well of the Blank60, T5, T10, T20, T30, T60 and NCF60 plates, 300 μL of stop solution was added to terminate the reaction.
5: All sample plates were shaken to mix well and centrifuged at 4000 rpm for 20 min, and 100 μL of the supernatant of the test sample or control sample was taken and diluted with 300 μL of pure water for LC-MS/MS analysis.
6: Data analysis: T1/2 and CLint(mic) (μL/min/mg) values were calculated according to the first-order elimination kinetics. The first-order elimination kinetics equation was: […]

[3] = brain, read-out: Drug concentration in brain tissue
[4] = brain/plasma, read-out: Brain tissue/plasma
[5] = cerebrospinal fluid, read-out: Drug concentration in cerebrospinal fluid
[6] = cerebrospinal fluid/plasma, read-out: Cerebrospinal fluid/plasma
[7] = plasma, read-out: Plasma drug concentration

% Remaining (60 min) Rat ([2]; 60 min)	half-life ([2]; liver microsomes, 0.5 mg/mL protein, read-out: T1/2 (min) Rat)	Structure (SMILES)	IC50 (BT474 cell proliferation)	concentration at 1 h [1, 3]	concentration at 2 h [1, 3]	concentration at 4 h [1, 3]	Kp at 1 h [1, 4]	Kp at 2 h [1, 4]	Kp at 4 h [1, 4]	concentration at 1 h [1, 5]	concentration at 2 h [1, 5]	concentration at 4 h [1, 5]	Kp at 1 h [1, 6]	Kp at 2 h [1, 6]	Kp at 4 h [1, 6]	concentration at 1 h [1, 7]	concentration at 2 h [1, 7]	concentration at 4 h [1, 7]	microsomal CLint ([2]; liver microsomes)
–	–	Cc1cc(Nc2ncnc3ccc(NC4=NC(C)(C)CO4)cc23)ccc1Oc1ccn2ncnc2c1 [Tucatinib, reference compound]	30.2 nM	26.5 ng/g	29.5 ng/g	24.5 ng/g	0.013	0.015	0.013	19.2 ng/mL	10.4 ng/mL	14.9 ng/mL	0.009	0.005	0.008	2030 ng/mL	1940 ng/mL	1900 ng/mL	34.9 µL/min/mg
49.6%	60.8 min	Nc1nccn2c(C34CCC(CO)(CC3)OC4)nc(-c3ccc(C(F)(F)c4ccccc4F)cc3)c12 [Example 145]	40.9 nM	643 ng/g	–	910 ng/g	0.39	–	0.53	59.7 ng/mL	–	74.3 ng/mL	0.036	–	0.044	1650 ng/mL	–	1710 ng/mL	22.8 µL/min/mg
–	–	Nc1nccn2c(C34CCC(CO)(CC3)OC4)nc(-c3ccc(C(F)(F)c4ccccc4Cl)cc3)c12 [Example 155]	46.4 nM	1520 ng/g	1860 ng/g	1260 ng/g	1.21	1.3	1.19	292 ng/mL	374 ng/mL	220 ng/mL	0.23	0.26	0.21	1250 ng/mL	1430 ng/mL	1060 ng/mL	62.2 µL/min/mg
–	–	Nc1nccn2c(C3CCC(CO)OC3)nc(-c3ccc(C(F)(F)c4ccccc4)cc3)c12 (single isomer, unassigned) [Example 111-P1]	1550 nM	1250 ng/g	1070 ng/g	787 ng/g	0.62	0.67	0.59	66.2 ng/mL	52.3 ng/mL	41.9 ng/mL	0.033	0.033	0.031	2010 ng/mL	1580 ng/mL	1340 ng/mL	–
–	–	Nc1nccn2c(C34CCC(CO)(CC3)OC4)nc(-c3ccc(C(F)(F)c4cccc(Cl)c4F)cc3)c12 [Example 152]	65.5 nM	288 ng/g	378 ng/g	232 ng/g	0.27	0.39	0.32	187 ng/mL	227 ng/mL	181 ng/mL	0.18	0.24	0.25	1060 ng/mL	961 ng/mL	715 ng/mL	102 µL/min/mg
–	–	Nc1nccn2c(C34CCC(CO)(CC3)OC4)nc(-c3ccc(C(F)(F)c4ccccc4)cc3)c12 [Example 125]	340 nM	1340 ng/g	1170 ng/g	1060 ng/g	0.91	1.03	0.84	34.1 ng/mL	30.4 ng/mL	29.6 ng/mL	0.023	0.027	0.024	1470 ng/mL	1130 ng/mL	1260 ng/mL	21.7 µL/min/mg
